Laboratory results: US8771723B2, “Compositions for reducing gastro-intestinal methanogenesis in ruminants” (priority 2009, dated 2014)
Where “and” joins values, the source holds several entries; their conditions need not be identical. Equal values may be shown once. Marks after values point to notes of the source that are not given here.

What was measured:
[1] = system: methane emissions from enteric fermentation; experiment: Methane production in indirect respiration calorimetry chambers; assay type: in vivo, male Texel Cross lambs; settings: for Actual decrease in methane production as CH4 mass: CH4=0.714 g/l; for Methane production rate over 24 h versus control: fed once daily, nitrate: immediately after feeding, SO4: entire 24 h-period; for Actual decrease in methane production / Reduction in daily methane production: respiration chambers; for Actual decrease in methane production: 24.9 g NO3 or 27.0 g SO4 consumed per day; for Reduction in daily methane production: addition to the diet
Description: Feed intake and growth were monitored during the experiment. […] After the adaptation period four animals (one block) were housed in indirect respiration calorimetry chambers for a week to determine gaseous exchange. In the following weeks a new block of sheep was introduced to the chambers each week. Each respiration chamber housed an individual sheep. The respiration calorimetry chambers used are described in detail in […] et al. (1987). […] Net production or consumption of these gases was calculated from the difference in concentrations between in and outgoing air multiplied by air flow and subsequently recalculated to standard circumstances (0° C., 101 kPa, no water vapour). […] Animals were blocked by weight and subsequently within a block randomly allotted to one of four dietary treatments: CON, NO3, SO4 or NO3+SO4. During the adaptation phase, sheep were introduced to the experimental premixes in steps of 25% per week. […] Before morning feeding, orts were removed from the feed bins and weighed to determine voluntary feed intake. During the week in the respiration chambers, feed availability was restricted to 95% of the feed consumed by the animal consuming the least feed within a block in the week prior to housing in the respiration chambers. Feed restriction was applied to avoid interactions between the effect of the additives on DMI and the effect on methane production.

[2] = Feed intake and growth during the 4-week adaptation to dietary nitrate and sulphate; assay type: in vivo, male Texel Cross lambs; settings: for Feed intake: main effect, additive in diet (Yes); for Effect on body weight gain: adaptation stage; for Body weight (BW) / Body weight gain (BWG) overall / Body weight gain (BWG): main effect (Yes); for Body weight gain (BWG) overall: overall adaptation stage
Description: Feed intake and growth were monitored during the experiment. […] The Animal Care and Use Committee of the Animal Sciences Group, WUR, Lelystad approved the experimental protocol of this experiment. […] During a four-week adaptation phase to the dietary additives, animals were housed in individual calf hutches to allow individual feeding. Sheep were weighed weekly to monitor growth during the entire experiment. […] Animals were blocked by weight and subsequently within a block randomly allotted to one of four dietary treatments: CON, NO3, SO4 or NO3+SO4. […] At feeding, the premixes were hand-mixed into the diets. Water was freely available during the experiment. […] Before morning feeding, orts were removed from the feed bins and weighed to determine voluntary feed intake. During the week in the respiration chambers, feed availability was restricted to 95% of the feed consumed by the animal consuming the least feed within a block in the week prior to housing in the respiration chambers. Feed restriction was applied to avoid interactions between the effect of the additives on DMI and the effect on methane production. […] Limestone was added to the control diet to ensure equal Ca-intake between treatments. MgO was included in the diet to obtain similar Mg-levels between diets. The volume of the different additions to the diets was different for each treatment, and wood cellulose was used to balance for this.

[3] = system: methanogens; experiment: Enteric methanogen counts; settings: in vivo
[4] = system: rumen microbes; experiment: In vitro rumen fermentation simulation; assay type: cell-based, cow
Description: Feed used in rumen simulation was 1 gram of dry matter and composed of grass silage (0.5 g dry matter) and commercial compound feed, 0.5 g dry matter. The treatments were as indicate in the following table: […] All the treatments were run in quadruplicates, the total number of simulation vessels being 72. […] Finally, 2 ml of fresh, strained rumen fluid was added in the serum bottles, the final volume being 40 ml. This inoculation started the actual rumen simulation. Inoculation time for each vessel was registered and taken into account when sampling and stopping the fermentation. Rumen fermentation simulation was continued for 12 hours at 37° C. […] These samples were analysed for methane to see the effect of treatments on the total methane produced by rumen bacteria during the 12 hours. The analysis was performed by gas chromatography using flame ionisation detector and pure methane and ethane as standards. NO3 and NO2 were analysed from all simulation vessels at 0, 2, 4 and 12 hours. […] NH4 was analysed from all simulation vessels at 0, 2, 4 and 12 hours. The method was colorimetric and based on phenol-hypochlorite reaction. Statistical analysis consisted of two-tailed t-tests for all measured parameters. The tests were performed against the treatment with […] and MgSO4 amendment (treatments 2 and 17). t-test was chosen to let the individual treatments be independent of the other treatments tested simultaneously.

[5] = cited from earlier work
[6] = Methemoglobin content of blood during adaptation period
Description: Blood was sampled at d2, d8, d15, d22 and d28 at 1, 3 and 5 h post-feeding. […] Blood samples were taken in heparin containing collection tubes (Vacutainers) and stored in the refrigerator directly after sampling. At the end of the sampling day, samples were dispatched for analyses and were analyzed the next day.

[7] = Blood methaemoglobin in cows supplemented with nitrate and sulphate; assay type: in vivo
Description: The experiment was a randomized block design, with 4 animals per block and different sulphate doses as treatments. Animals were blocked by milk yield and subsequently within a block randomly allotted to one of four dietary treatments: NO3, NO3+low SO4, NO3+medium SO4, NO3+high SO4.
The dietary additives were included in the premix (table 5). At feeding, the premixes were delivered to cows as part of a Total Mixed Ration. Water was freely available during the experiment.
Blood was sampled 3 h post-feeding twice a week throughout the experiment to closely monitor the concentration of methaemoglobin. Blood was collected into evacuated tubes containing heparin, plunged immediately into ice-cold water and stored in a refrigerator at 4 C. At the end of each sampling day, samples were dispatched for analysis and were analyzed the next day.

[8] = Feed intake, CO2/O2 exchange and heat production in respiration chambers; assay type: in vivo, male Texel Cross lambs
Description: After the adaptation period four animals (one block) were housed in indirect respiration calorimetry chambers for a week to determine gaseous exchange. In the following weeks a new block of sheep was introduced to the chambers each week. Each respiration chamber housed an individual sheep. The respiration calorimetry chambers used are described in detail in […] et al. (1987). […] Net production or consumption of these gases was calculated from the difference in concentrations between in and outgoing air multiplied by air flow and subsequently recalculated to standard circumstances (0° C., 101 kPa, no water vapour). […] Before morning feeding, orts were removed from the feed bins and weighed to determine voluntary feed intake. During the week in the respiration chambers, feed availability was restricted to 95% of the feed consumed by the animal consuming the least feed within a block in the week prior to housing in the respiration chambers. Feed restriction was applied to avoid interactions between the effect of the additives on DMI and the effect on methane production.

Molecule | Actual decrease in methane production as CH4 mass [1] [g] | Methane production rate over 24 h versus control [1] | Actual decrease in methane production [1] [L] | Reduction in daily methane production [1] [%] | Feed intake ([2]; Week 1 of adaptation) [g/lamb/day] | Feed intake ([2]; Week 2 of adaptation) [g/lamb/day] | Feed intake ([2]; Week 3 of adaptation) [g/lamb/day] | Feed intake ([2]; Week 4 of adaptation) [g/lamb/day] | Effect on body weight gain [2] | Body weight (BW) ([2]; day 0) [kg/lamb] | Body weight (BW) ([2]; day 7) [kg/lamb] | Body weight (BW) ([2]; day 14) [kg/lamb] | Body weight (BW) ([2]; day 21) [kg/lamb] | Body weight (BW) ([2]; day 28) [kg/lamb] | Body weight gain (BWG) overall [2] [kg/lamb/week] | Body weight gain (BWG) ([2]; week 1) [kg/lamb/week] | Body weight gain (BWG) ([2]; week 2) [kg/lamb/week] | Body weight gain (BWG) ([2]; week 3) [kg/lamb/week] | Body weight gain (BWG) ([2]; week 4) [kg/lamb/week] | effect on enteric methanogen counts [3] | also measured
O=S(=O)([O-])[O-].[Mg+2] [Sulphate, MgSO4 (anhydrous)] | 2.9 | consistently lower than the control treatment | 4 | 19 | 2724 | 2770 | 2618 | 2457 | did not affect body weight gain | 42.4 | 43.1 | 44.3 | 44.7 | 44.8 | 2.34 | 0.70 | 1.20 | 0.38 | 0.06 | does not | 
CC(O)C(=O)O (centres unmarked) [lactic acid, Na-lactate] |  |  |  |  |  |  |  |  |  |  |  |  |  |  |  |  |  |  |  |  | gas production, initial ([4]; first 4 hours, compared to the nitrate enriched treatment (Calcinit + MgSO4)): suppressed; cumulative gas production, later time points ([4]; later time points up to 12 h, compared to Calcinit + MgSO4): continued to suppress gas production dose dependently
O=[N+]([O-])[O-].[Na+] [NaNO3, reference compound] |  |  |  |  |  |  |  |  |  |  |  |  |  |  |  |  |  |  |  |  | Concentrations of MetHb ([5]; Takahashi et al., 1998, 1.5 g/kg BW^0.75 into the rumen): over 30%
5Ca(NO3)2•NH4NO3•10H2O [Nitrate] | 5.8 | remained at a far lower level | 8.1 | 34 | 2686 | 2591 | 2526 | 2411 | did not affect body weight gain | 43.0 | 43.6 | 44.7 | 45.2 | 45.5 | 2.46 | 0.54 | 1.08 | 0.59 | 0.25 | reduce enteric methanogen counts | blood MetHb-content ([6]; 75% of the inclusion rate, 3 h post feeding, one sheep tested positive): 3 % of Hb; MetHb-values ([6]; 100% inclusion rate for one week (d28), 3 h post-feeding, two individual sheep tested positive, listed as NO3): 7 % of Hb and 3 % of Hb; MetHb-levels, highest observed ([6]; whole experiment, detection limit 2% of Hb): ≤ 7 % of Hb; suppression of absolute methane production ([4]; 12-hour simulation (FIG. 5A)): ~80%; total produced methane ([4]; 12-hour simulation, 14 mM nitrate): 1.5 mL; residual concentration of ammonium ([4]; 12 hours, 14 mM nitrate added (FIG. 8C)): 18 mM; rise in blood methaemoglobin ([7]; 100% inclusion rate of nitrate): more pronounced; Blood methaemoglobin ([7]; cows, diets with 3% NO3 of DM and increasing SO4 (table 5)): 13.1^a % of haemoglobin; MetHb-levels ([5]; Sar et al. (2004), 0.9 g NO3/kg^0.75 of BW intraruminally, no adaptation): 18.4 % of Hb; Feed intake reduction ([2]; period beyond week 1 (more than 25% of final inclusion rate)): approximately 9%; Oxygen consumption lower than control ([8]; directly after feeding at 8 AM): 10-18%; MetHb-levels estimated from oxygen consumption ([8]; regression equation of Takahashi et al., 1998): approximately 5%; Reduction in oxygen consumption ([8]; respiration chambers, daily): 6%
